# Results: BindingDB's records for doi:10.1039/d3md00655g (Henan University, 2024)
# How the values were obtained:
# [1] = biological target: Programmed cell death 1 ligand 1 (Homo sapiens) (UniProt Q9NZQ7); test: Inhibition of PD-1/PD-L1 (unknown origin) protein-protein interaction
# [2] = biological target: Programmed cell death 1 ligand 1 (Homo sapiens) (UniProt Q9NZQ7); test: Inhibition of PD-1/PD-L1 (unknown origin) interaction incubated for 15 mins by HTRF assay
# Sequence of Programmed cell death 1 ligand 1 (Homo sapiens) (Q9NZQ7 whole entry, looked up): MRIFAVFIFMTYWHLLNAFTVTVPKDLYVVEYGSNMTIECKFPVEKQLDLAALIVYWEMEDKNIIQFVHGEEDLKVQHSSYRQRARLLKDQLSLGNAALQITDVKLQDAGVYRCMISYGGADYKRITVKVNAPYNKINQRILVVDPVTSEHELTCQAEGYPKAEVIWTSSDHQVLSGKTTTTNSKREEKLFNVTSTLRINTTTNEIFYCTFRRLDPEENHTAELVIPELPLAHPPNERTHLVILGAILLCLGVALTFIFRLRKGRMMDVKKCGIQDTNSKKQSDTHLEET
SMILES,IC50 [1],IC50 [2]
COc1nc(-c2cccc(-c3ccccc3F)c2C)ccc1CNCCC(N)=O,0.93 nM,–
Cc1c(COc2ccc(CN3CCNCC3)c(OCc3cn(-c4cccc(C#N)c4)nn3)c2)cccc1-c1ccccc1,–,8.52 µM
